Experimental data published in article PMC8836076, “A Fungal Versatile GH10 Endoxylanase and Its Glycosynthase Variant: Synthesis of Xylooligosaccharides and Glycosides of Bioactive Phenolic Compounds” (International Journal of Molecular Sciences, 2022).

Biological target: T1, rXynSOS (Talaromyces amestolkiae, UniProt A0A364LCP8, E255G)
T1 construct: gene BHQ10_009513; mature protein (389 aa, GH10 domain + C-terminal CBM1), 19-aa signal peptide removed, pPIC9 in Pichia pastoris GS115, no tag, starts QLNTAAK (from primer), glycosylated, 53 kDa monomer
Test: ESI-MS and NMR of xylooligosaccharide synthesis
Assay type: biochemical
Conditions: glycosynthase; 20 mM X2F as only reactant (donor and acceptor), 50 mM sodium acetate pH 5, 25 °C, 16 h

T1 sequence (A0A364LCP8 entry or part of it E255G): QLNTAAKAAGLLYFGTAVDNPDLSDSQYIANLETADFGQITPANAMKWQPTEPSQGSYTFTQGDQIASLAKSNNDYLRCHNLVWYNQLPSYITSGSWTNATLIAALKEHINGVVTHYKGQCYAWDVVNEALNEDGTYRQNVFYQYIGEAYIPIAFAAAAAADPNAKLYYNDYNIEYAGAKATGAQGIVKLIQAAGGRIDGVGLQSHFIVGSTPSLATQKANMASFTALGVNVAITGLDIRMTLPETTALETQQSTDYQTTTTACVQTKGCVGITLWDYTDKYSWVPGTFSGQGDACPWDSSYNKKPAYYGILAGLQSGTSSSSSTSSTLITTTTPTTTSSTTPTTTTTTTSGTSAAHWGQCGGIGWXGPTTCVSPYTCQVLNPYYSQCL

## O[C@@H]1[C@@H](O)[C@H](O[C@@H]2CO[C@H](F)[C@H](O)[C@H]2O)OC[C@H]1O [X2F, xylobiose-fluoride]
  ESI-MS and NMR of xylooligosaccharide synthesis: reaction with X2F as the only reactant molecule (no acceptor was added)
